Patent publication US20100234390A1, “NOVEL COMPOUND AND THEIR USE” (priority 2007, published 2010)

How the values were obtained:
Assay in all cases: Agar dilution MIC
Conditions in all cases: 35° C., 16-20 hours
E. faecalis MRO 04205 = type: cell-based, Enterococcus faecalis
Procedure: (§1) Briefly, the compounds of invention were weighed, dissolved in dimethyl sulfoxide, serially two fold diluted in the same solvent and then incorporated into molten Mueller Hinton Agar (MHA) in a petridish just before solidification, with each petridish containing a different concentration of a compound.
(§2) The bacterial inoculum was prepared by picking 3 to 5 well isolated bacterial colonies with the same morphological appearance from an 18-24 hours old culture with an inoculating loop, transferring the growth to a tube containing 3 mL of normal saline and adjusting the turbidity of the saline suspension to 0.5 Mc Farland Turbidity Standard equivalent to a bacterial population of 1.5×10^8 colony forming units (CFU) per mL of suspension. The suspension was diluted 1:10 in saline (i.e. 0.5 mL suspension 4.5 mL saline) to get a bacterial population of 1.5×10^7 CFU/mL as inoculum.
(§3) The inoculated petridishes were incubated at 35° C. in an ambient atmosphere for 16-20 hours.

E. faecalis MRO 04050 = type: cell-based, Enterococcus faecalis
Procedure: as §1, §2, §3

E. faecalis ATCC 51299 = type: cell-based, Enterococcus faecalis
Procedure: as §1, §2, §3

E. faecalis ATCC 29212 = type: cell-based, Enterococcus faecalis
Procedure: as §1, §2, §3

E. faecalis MRO 04035 = type: cell-based, Enterococcus faecalis
Procedure: as §1, §2, §3

[1] = test system: S. saprophyticus MRO 02003; type: cell-based
Procedure: as §1, §2, §3

S. epidermidis MRO 02095 = type: cell-based
Procedure: as §1, §2, §3

S. epidermidis MRO 02045 = type: cell-based
Procedure: as §1, §2, §3

[2] = test system: S. epidermidis MRO 002046; type: cell-based
Procedure: as §1, §2, §3

[3] = test system: S. haemolyticus MRO 02064; type: cell-based
Procedure: as §1, §2, §3

S. epidermidis MRO 02002 = type: cell-based
Procedure: as §1, §2, §3

E. faecium MRO 04037 = type: cell-based, Enterococcus faecium
Procedure: as §1, §2, §3

E. faecium MRO 04038 = type: cell-based, Enterococcus faecium
Procedure: as §1, §2, §3

E. faecium MRO 04198 = type: cell-based, Enterococcus faecium
Procedure: as §1, §2, §3

E. faecium ATCC 700221 = type: cell-based, Enterococcus faecium
Procedure: as §1, §2, §3

S. aureus MRO 002053 = type: cell-based, Staphylococcus aureus
Procedure: as §1, §2, §3

S. aureus ATCC 43300 = type: cell-based, Staphylococcus aureus
Procedure: as §1, §2, §3

S. aureus MRO 00059 = type: cell-based, Staphylococcus aureus
Procedure: as §1, §2, §3

S. aureus MRO 00013 = type: cell-based, Staphylococcus aureus
Procedure: as §1, §2, §3

S. aureus MRO 00048 = type: cell-based, Staphylococcus aureus
Procedure: as §1, §2, §3

S. aureus MRO 0003 = type: cell-based, Staphylococcus aureus
Procedure: as §1, §2, §3

S. aureus MRO 0001 = type: cell-based, Staphylococcus aureus
Procedure: as §1, §2, §3

S. aureus MRO 00030 = type: cell-based, Staphylococcus aureus
Procedure: as §1, §2, §3

S. aureus ATCC 29213 = type: cell-based, Staphylococcus aureus
Procedure: as §1, §2, §3

S. aureus MRO 00055 = type: cell-based, Staphylococcus aureus
Procedure: as §1, §2, §3

[4] = test system: M. catarrhalis ATCC 43617; type: cell-based, Moraxella catarrhalis
Procedure: as §1, §2, §3

[5] = test system: M. catarrhalis ATCC 43627; type: cell-based, Moraxella catarrhalis
Procedure: as §1, §2, §3

[6] = test system: M. catarrhalis ATCC 43628; type: cell-based, Moraxella catarrhalis
Procedure: as §1, §2, §3

Row | SMILES | Antimicrobial Screening (MIC) (E. faecalis MRO 04205) [µg/mL] | Antimicrobial Screening (MIC) (E. faecalis MRO 04050) [µg/mL] | Antimicrobial Screening (MIC) (E. faecalis ATCC 51299) [µg/mL] | Antimicrobial Screening (MIC) (E. faecalis ATCC 29212) [µg/mL] | Antimicrobial Screening (MIC) (E. faecalis MRO 04035) [µg/mL] | Antimicrobial Screening (MIC) [1] [µg/mL] | Antimicrobial Screening (MIC) (S. epidermidis MRO 02095) [µg/mL] | Antimicrobial Screening (MIC) (S. epidermidis MRO 02045) [µg/mL] | Antimicrobial Screening (MIC) [2] [µg/mL] | Antimicrobial Screening (MIC) [3] [µg/mL] | Antimicrobial Screening (MIC) (S. epidermidis MRO 02002) [µg/mL] | Antimicrobial Screening (MIC) (E. faecium MRO 04037) [µg/mL] | Antimicrobial Screening (MIC) (E. faecium MRO 04038) [µg/mL] | Antimicrobial Screening (MIC) (E. faecium MRO 04198) [µg/mL] | Antimicrobial Screening (MIC) (E. faecium ATCC 700221) [µg/mL] | Antimicrobial Screening (MIC) (S. aureus MRO 002053) [µg/mL] | Antimicrobial Screening (MIC) (S. aureus ATCC 43300) [µg/mL] | Antimicrobial Screening (MIC) (S. aureus MRO 00059) [µg/mL] | Antimicrobial Screening (MIC) (S. aureus MRO 00013) [µg/mL] | Antimicrobial Screening (MIC) (S. aureus MRO 00048) [µg/mL] | other results
1 | COC(=S)NC[C@H]1CN(c2ccc(N3CCN(C(=O)CNS(C)(=O)=O)CC3)c(F)c2)C(=O)O1 [Example 43] | 0.25 | 0.25 | 0.25 | 0.25 | 0.25 | 0.5 | 0.5 | 0.5 | 0.25 | 0.5 | 0.5 | 0.25 | 0.25 | 0.5 | 0.25 | 0.5 | 0.5 | 0.5 | 0.5 | 0.5 | Antimicrobial Screening (MIC) (S. aureus MRO 0003): 0.5 µg/mL; Antimicrobial Screening (MIC) (S. aureus MRO 0001): 0.25 µg/mL; Antimicrobial Screening (MIC) (S. aureus MRO 00030): 0.5 µg/mL; Antimicrobial Screening (MIC) (S. aureus ATCC 29213): 0.5 µg/mL; Antimicrobial Screening (MIC) (S. aureus MRO 00055): 0.5 µg/mL; Antimicrobial Screening (MIC) [4]: 1 µg/mL; Antimicrobial Screening (MIC) [5]: 2 µg/mL; Antimicrobial Screening (MIC) [6]: 2 µg/mL
2 | COC(=S)NC[C@H]1CN(c2ccc(N3CCN(C(=S)n4ccnc4)CC3)c(F)c2)C(=O)O1 [Example 76, (S)—O-Methyl(3-(4-(4-(1H-imidazole-1-carbonothioyl)piperazin-1-yl)-3-fluorophenyl)-2-oxooxazolidin-5-yl)methylcarbamothioate] | 0.25 | 0.25 | 0.25 | 0.25 | 0.25 | 0.5 | 0.25 | 0.25 | 0.25 | 0.25 | 0.25 | 0.25 | 0.25 | 0.25 | 0.25 | 0.25 | 0.25 | 0.25 | 0.5 | 0.25 | Antimicrobial Screening (MIC) (S. aureus MRO 0003): 0.5 µg/mL; Antimicrobial Screening (MIC) (S. aureus MRO 0001): 0.5 µg/mL; Antimicrobial Screening (MIC) (S. aureus MRO 00030): 0.25 µg/mL; Antimicrobial Screening (MIC) (S. aureus ATCC 29213): 0.5 µg/mL; Antimicrobial Screening (MIC) (S. aureus MRO 00055): 0.5 µg/mL; Antimicrobial Screening (MIC) [4]: 1 µg/mL; Antimicrobial Screening (MIC) [5]: 1 µg/mL; Antimicrobial Screening (MIC) [6]: 1 µg/mL
3 | COC(=S)NC[C@H]1CN(c2ccc(N3CCN(C(=O)c4ccno4)CC3)c(F)c2)C(=O)O1 [Example 44, (S)—O-M ethyl(3-(3-fluoro-4-(4-(isoxazole-5-carbonyl)piperazin-1-yl)phenyl)-2-oxooxazolidin-5-yl)methylcarbamothioate] | 0.25 | 0.5 | 0.25 | 0.25 | 0.25 | 0.5 | 0.25 | 0.5 | 0.25 | 0.25 | 0.5 | 0.25 | 0.25 | 0.25 | 0.25 | 0.5 | 0.5 | 0.5 | 0.5 | 0.25 | Antimicrobial Screening (MIC) (S. aureus MRO 0003): 0.5 µg/mL; Antimicrobial Screening (MIC) (S. aureus MRO 0001): 0.5 µg/mL; Antimicrobial Screening (MIC) (S. aureus MRO 00030): 0.5 µg/mL; Antimicrobial Screening (MIC) (S. aureus ATCC 29213): 0.5 µg/mL; Antimicrobial Screening (MIC) (S. aureus MRO 00055): 0.5 µg/mL; Antimicrobial Screening (MIC) [4]: 1 µg/mL; Antimicrobial Screening (MIC) [5]: 2 µg/mL; Antimicrobial Screening (MIC) [6]: 1 µg/mL
4 | COC(=S)NC[C@H]1CN(c2ccc(N3CCN(C(=O)c4cccnc4)CC3)c(F)c2)C(=O)O1 [Example 2, (S)—O-Methyl(3-(3-fluoro-4-(4-nicotinoylpiperazin-1-yl)phenyl)-2-oxooxazolidin-5-yl)methylcarbamothioate] | 0.5 | 1 | 0.5 | 1 | 0.5 | 1 | 1 | 1 | 1 | 1 | 1 | 0.5 | 0.5 | 0.5 | 0.5 | 1 | 1 | 1 | 1 | 0.5 | Antimicrobial Screening (MIC) (S. aureus MRO 0003): 1 µg/mL; Antimicrobial Screening (MIC) (S. aureus MRO 0001): 0.5 µg/mL; Antimicrobial Screening (MIC) (S. aureus MRO 00030): 1 µg/mL; Antimicrobial Screening (MIC) (S. aureus ATCC 29213): 1 µg/mL; Antimicrobial Screening (MIC) (S. aureus MRO 00055): 1 µg/mL; Antimicrobial Screening (MIC) [4]: 1 µg/mL; Antimicrobial Screening (MIC) [5]: 4 µg/mL; Antimicrobial Screening (MIC) [6]: 4 µg/mL
